In US10010614B2, “Derivatives of GLP-1 like peptides, and uses thereof” (Novo Nordisk A/S, priority 2013, dated 2018):
Where two headings read alike, the source gives them in different places. Numbered stars: 1 amine (or outer) side, 2 acyl side, 3 side chain; on linkers, the order of the positions; unused ones are H or OH. Square brackets hold non-standard residues; d marks the D form. Side chains are listed from the residue outwards. Peptide text beside a SMILES is read from it. * marks the point of attachment. C22 diacid = O=C(O)CCCCCCCCCCCCCCCCCCCCC(=O)*; C20 diacid = O=C(O)CCCCCCCCCCCCCCCCCCC(=O)*; γGlu = O=C(O)[C@H](CCC(=O)[*:2])N[*:1]; εLys = N[C@@H](CCCCN[*:1])C(=O)[*:2]; Trx = NC[C@H]1CC[C@H](C(=O)O)CC1; AEEA = NCCOCCOCC(=O)O; Aib = CC(C)(N)C(=O)O

Assays:
human GLP-1 receptor [1] = target: T1, human GLP-1 receptor (Homo sapiens, UniProt P43220); assay: In vitro potency, CRE luciferase reporter gene assay in BHK cells expressing the human GLP-1 receptor; type: cell-based; details: whole cell reporter gene assay, 3 h incubation, no HSA, averages of at least two replicates
T1 construct: expressed in transfected cells; host or cells: membranes prepared from BHK cells (parent line BHKTS13), clone FCW467-12A
T1 sequence (P43220 24-463): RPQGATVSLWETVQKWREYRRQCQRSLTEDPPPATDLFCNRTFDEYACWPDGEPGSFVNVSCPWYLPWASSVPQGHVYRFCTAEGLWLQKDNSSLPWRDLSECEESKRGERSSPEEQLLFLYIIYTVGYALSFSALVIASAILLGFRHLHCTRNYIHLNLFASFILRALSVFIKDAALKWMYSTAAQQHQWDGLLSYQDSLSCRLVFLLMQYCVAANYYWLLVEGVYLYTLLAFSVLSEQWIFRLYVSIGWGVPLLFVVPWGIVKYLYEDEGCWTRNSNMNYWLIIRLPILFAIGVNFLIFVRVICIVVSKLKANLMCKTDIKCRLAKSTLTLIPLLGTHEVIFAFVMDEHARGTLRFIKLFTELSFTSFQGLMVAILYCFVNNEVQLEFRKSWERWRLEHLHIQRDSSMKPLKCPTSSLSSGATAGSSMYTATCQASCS
How it was run: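 Stably transfected BHK cells (5×10^3/well) expressing human GLP-1R with a CRE-luciferase reporter; compounds diluted in buffer with 2% ovalbumin and 0.2% Pluronic F-68, final 1×10^−7 to 1×10^−14 M. Incubated 3 h at 37 °C, 5% CO2, then luminescence read; potency from non-linear log(agonist)–response fit, mean of ≥2 replicates.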

human GLP-1 receptor [2] = target: T1, human GLP-1 receptor; assay: GLP-1 receptor binding, competitive binding assay (125I-GLP-1, SPA) on isolated membranes;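 also: test compounds added at a range of concentrations to membranes from cells expressing the human GLP-1 receptor, scored by displacement of labelled ligand, read with WGA SPA beads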
[3] = Pharmacokinetic study in minipigs (i.v.); type: in vivo; details: male, Göttingen, minipig, plasma, iv; read-out: Terminal half-live (converted)
Method: The purpose of this study is to determine the protraction in vivo of the GLP-1 derivatives after i.v. administration to minipigs, i.e. the prolongation of their time in the body and thereby their time of action. This is done in a pharmacokinetic (PK) study, where the terminal half-life of the derivative in question is determined. By terminal half-life is meant the time it takes to halve a certain plasma concentration in the terminal elimination phase.
The derivatives of Examples 1-5 were dosed with 2 nmol/kg, the derivative of Example 6 was dosed with 5 nmol/kg, and the derivatives of Examples 7-9 were dosed with 15 nmol/kg.
Male Göttingen minipigs were obtained from Ellegaard Göttingen Minipigs (Dalmose, Denmark) approximately 7-14 months of age and weighing approximately 16-35 kg were used in the studies. The minipigs were housed either individually (pigs with permanent catheters) or in a group and fed restrictedly once or twice daily with SDS minipig diet (Special Diets Services, Essex, UK).
After at least 2 weeks of acclimatisation two permanent central venous catheters were implanted in vena cava caudalis or cranialis in each animal. The animals were allowed 1 week recovery after the surgery, and were then used for repeated pharmacokinetic studies with a suitable wash-out period between successive GLP-1 derivative dosings.
The GLP-1 derivatives were dissolved in 50 mM sodium phosphate, 70-145 mM sodium chloride, 0.05% tween 80, pH 7.4 to a concentration of usually from 20-60 nmol/ml.
Intravenous injections (the volume corresponding to for example 0.050-0.125 ml/kg) of the compounds were given through one catheter or through the venflon, and blood was sampled at predefined time points for up till 25 days post dosing (preferably through the other catheter or by venipuncture). Blood samples (for example 0.8 ml) were collected in EDTA buffer (8 mM) and then centrifuged at 4° C. and 1942G for 10 minutes.
Plasma was pipetted into Micronic tubes on dry ice, and kept at −20° C. until analysed for plasma concentration of the respective GLP-1 compound using LOCI. Individual plasma concentration-time profiles were analyzed by a non-compartmental pharmacokinetic method in Phoenix v. 6.2 (Pharsight Inc., Mountain View, Calif., USA), or other relevant software for PK analysis, and the resulting terminal half-lives (harmonic mean) determined.

[4] = High HSA IC50 (nM), high serum albumin (2.0% HSA final assay concentration)
[5] = Low HSA IC50 (nM), low serum albumin (max. 0.001% final assay concentration)

| SMILES | EC50 (human GLP-1 receptor [1]) | IC50 (human GLP-1 receptor [2]; [4]) | IC50 (human GLP-1 receptor [2]; [5]) | half-life [3] | IC50 (human GLP-1 receptor [2]; high serum albumin (2.0% HSA final assay concentration), read-out: High HSA IC50) | IC50 (human GLP-1 receptor [2]; low serum albumin (max. 0.001% final assay concentration), read-out: Low HSA IC50) |
| --- | --- | --- | --- | --- | --- | --- |
| CC[C@H](C)[C@H](NC(=O)[C@H](Cc1ccccc1)NC(=O)[C@H](CCC(=O)O)NC(=O)[C@H](CCCNC(=N)N)NC(=O)[C@H](C)NC(=O)[C@H](C)NC(=O)[C@H](CCC(N)=O)NC(=O)[C@H](CCC(=O)O)NC(=O)[C@H](CCC(=O)O)NC(=O)[C@H](CC(C)C)NC(=O)[C@H](Cc1ccc(O)cc1)NC(=O)[C@H](CCCCNC(=O)COCCOCCNC(=O)COCCOCCNC(=O)CC[C@H](NC(=O)[C@H]1CC[C@H](CNC(=O)CCCCCCCCCCCCCCCCCCC(=O)O)CC1)C(=O)O)NC(=O)[C@H](CO)NC(=O)[C@@H](NC(=O)[C@H](CC(=O)O)NC(=O)[C@H](CO)NC(=O)[C@@H](NC(=O)[C@H](Cc1ccccc1)NC(=O)[C@@H](NC(=O)CNC(=O)[C@H](CCC(=O)O)NC(=O)C(C)(C)NC(=O)[C@@H](N)Cc1c[nH]cn1)[C@@H](C)O)[C@@H](C)O)C(C)C)C(=O)N[C@@H](C)C(=O)N[C@@H](Cc1c[nH]c2ccccc12)C(=O)N[C@@H](CC(C)C)C(=O)N[C@H](C(=O)N[C@@H](CCCNC(=N)N)C(=O)NCC(=O)N[C@@H](CCCNC(=N)N)C(=O)NCC(=O)NCC(=O)NCC(=O)NCC(=O)N[C@@H](CO)C(=O)N[C@@H](CCCCNC(=O)COCCOCCNC(=O)COCCOCCNC(=O)CC[C@H](NC(=O)[C@H]1CC[C@H](CNC(=O)CCCCCCCCCCCCCCCCCCC(=O)O)CC1)C(=O)O)C(=O)O)C(C)C [Example 6] (H-H[Aib]EGTFTSDVSK([AEEA-AEEA-γGlu-Trx-C20 diacid])YLEEQAAREFIAWLVRGRGGGGSK([AEEA-AEEA-γGlu-Trx-C20 diacid])-OH) | 0.093 nM | ≥ 1000 nM | 1 nM | 99 h | – | – |
| CC[C@H](C)[C@H](NC(=O)[C@H](Cc1ccccc1)NC(=O)[C@H](CCCCNC(=O)[C@@H](N)CCCCNC(=O)[C@@H](N)CCCCNC(=O)CC[C@H](NC(=O)CCCCCCCCCCCCCCCCCCC(=O)O)C(=O)O)NC(=O)[C@H](CCCNC(=N)N)NC(=O)[C@H](C)NC(=O)[C@H](C)NC(=O)[C@H](CCC(N)=O)NC(=O)[C@H](CCC(=O)O)NC(=O)[C@H](CCC(=O)O)NC(=O)[C@H](CC(C)C)NC(=O)[C@H](Cc1ccc(O)cc1)NC(=O)[C@H](CO)NC(=O)[C@H](CO)NC(=O)[C@@H](NC(=O)[C@H](CC(=O)O)NC(=O)[C@H](CO)NC(=O)[C@@H](NC(=O)[C@H](Cc1ccccc1)NC(=O)[C@@H](NC(=O)CNC(=O)[C@H](CCC(=O)O)NC(=O)C(C)(C)NC(=O)[C@@H](N)Cc1c[nH]cn1)[C@@H](C)O)[C@@H](C)O)C(C)C)C(=O)N[C@@H](C)C(=O)N[C@@H](Cc1c[nH]c2ccccc12)C(=O)N[C@@H](CC(C)C)C(=O)N[C@H](C(=O)N[C@@H](CCCNC(=N)N)C(=O)NCC(=O)N[C@@H](CCCNC(=N)N)C(=O)NCC(=O)NCC(=O)NCC(=O)NCC(=O)N[C@@H](CO)C(=O)N[C@@H](CCCCNC(=O)[C@@H](N)CCCCNC(=O)[C@@H](N)CCCCNC(=O)CC[C@H](NC(=O)CCCCCCCCCCCCCCCCCCC(=O)O)C(=O)O)C(=O)O)C(C)C [Example 8, N{Epsilon-27}-[(2S)-2-amino-6-[[(2S)-2-amino-6-[[(4S)-4-carboxy-4-(19-carboxynonadecanoylamino)butanoyl]amino]hexanoyl]amino]hexanoyl]-[Aib8,Glu22,Arg26,Lys27,Arg34]-GLP-1-(7-37)-peptidyl-Gly-Gly-Gly-Ser-N{Epsilon}[(2S)-2-amino-6-[[(2S)-2-amino-6-[[(4S)-4-carboxy-4-(19-carboxynonadecanoylamino)butanoyl]amino]hexanoyl]amino]hexanoyl]Lys] (H-H[Aib]EGTFTSDVSSYLEEQAARK([εLys-εLys-γGlu-C20 diacid])FIAWLVRGRGGGGSK([εLys-εLys-γGlu-C20 diacid])-OH) | 0.26 nM | – | – | 137 h | 383 nM | 0.43 nM |
| CC[C@H](C)[C@H](NC(=O)[C@H](Cc1ccccc1)NC(=O)[C@H](CCC(=O)O)NC(=O)[C@H](CCCNC(=N)N)NC(=O)[C@H](C)NC(=O)[C@H](C)NC(=O)[C@H](CCC(N)=O)NC(=O)[C@H](CCC(=O)O)NC(=O)[C@H](CCC(=O)O)NC(=O)[C@H](CC(C)C)NC(=O)[C@H](Cc1ccc(O)cc1)NC(=O)[C@H](CO)NC(=O)[C@H](CO)NC(=O)[C@@H](NC(=O)[C@H](CC(=O)O)NC(=O)[C@H](CO)NC(=O)[C@@H](NC(=O)[C@H](Cc1ccccc1)NC(=O)[C@@H](NC(=O)CNC(=O)[C@H](CCC(=O)O)NC(=O)C(C)(C)NC(=O)[C@@H](N)Cc1c[nH]cn1)[C@@H](C)O)[C@@H](C)O)C(C)C)C(=O)N[C@@H](C)C(=O)N[C@@H](Cc1c[nH]c2ccccc12)C(=O)N[C@@H](CC(C)C)C(=O)N[C@H](C(=O)N[C@@H](CCCNC(=N)N)C(=O)NCC(=O)N[C@@H](CCCNC(=N)N)C(=O)NCC(=O)N[C@@H](CCCCNC(=O)COCCOCCNC(=O)COCCOCCNC(=O)CC[C@H](NC(=O)[C@H]1CC[C@H](CNC(=O)CCCCCCCCCCCCCCCCCCCCC(=O)O)CC1)C(=O)O)C(=O)NCC(=O)NCC(=O)N[C@@H](CO)C(=O)N[C@@H](CCCCNC(=O)COCCOCCNC(=O)COCCOCCNC(=O)CC[C@H](NC(=O)[C@H]1CC[C@H](CNC(=O)CCCCCCCCCCCCCCCCCCCCC(=O)O)CC1)C(=O)O)C(=O)O)C(C)C [Example 9] (H-H[Aib]EGTFTSDVSSYLEEQAAREFIAWLVRGRGK([AEEA-AEEA-γGlu-Trx-C22 diacid])GGSK([AEEA-AEEA-γGlu-Trx-C22 diacid])-OH) | 0.101 nM | 21 nM | 1.6 nM | 167 h | – | – |
